Measured values: patent US5677350A, “Inhibition of cancer cell growth, proliferation, and metastasis using N,N'-dα,ω-diaminoalkanes” (priority 1995, dated 1997)
Blank lines part the entries; values can stand above or below the compound they belong to.

Experiments:
[1] = tested on: rat H-4-II-E hepatoma cells; experiment: Proliferation of rat H-4-II-E hepatoma cells in culture; assay type: cell-based
Protocol: (§1) Incubation of the cultures was carried out in standard fashion in the presence of 1 mM aminoguandine, an inhibitor of polyamine oxidases (PAO).
Cell proliferation studies were also conducted to analyze the effect of the terminal groups on cell inhibition. […] The results are depicted graphically in FIG. 5.
Comparative proliferation studies were also carried out to study the effect of chain length on the inhibitory effect of N,N'-dibenzylaminoalkanes. (See FIG. 6.) The in vitro inhibitory effects of DMP, DMC, and DBPr, were studied in the same rat H-4-II-E hepatoma cells as the above experiments.
Results are shown graphically in FIG. 10.

[2] = tested on: rat H-4-II-E hepatoma cells; experiment: Cell morphology of rat H-4-II-E hepatoma cells (photomicrographs); assay type: cell-based
Protocol: as §1
FIG. 7 is a series of photomicrographs (×160) of the above homologous cultures. The photomicrographs were taken 24 hours after introduction of the dibenzyldiaminoalkanes. […] Photo 7A is the control culture.

[3] = tested on: active putrescine transport; experiment: Uptake of (1,4-14C)-putrescine by H-4-II-E hepatoma cells; assay type: cell-based, rat
Protocol: (1,4-^14 C)-putrescine (10 μM) was added to the culture medium, and radioactivity measured in the cells (dpm/10 μg of protein). Uptake by control cells was considered to be 100%.
Because putrescine uptake by cells is regulated by an active transport system, its Km was determined for the H-4-II-E hepatoma cell line. The uptake of (1,4-^14 C)-putrescine was determined at two different putrescine concentrations as a function of time.
Each value of the plot was corrected by subtracting the amount of label due to non-specific binding to the cell membranae.

ODC [4] = target: T1, ODC (Rattus norvegicus, UniProt P09057); experiment: ODC activity in insulin-induced H-35 hepatoma cells; assay type: cell-based; details: 100 μM; for ODC activity (in words): added simultaneously with insulin
T1 sequence (P09057 1-461): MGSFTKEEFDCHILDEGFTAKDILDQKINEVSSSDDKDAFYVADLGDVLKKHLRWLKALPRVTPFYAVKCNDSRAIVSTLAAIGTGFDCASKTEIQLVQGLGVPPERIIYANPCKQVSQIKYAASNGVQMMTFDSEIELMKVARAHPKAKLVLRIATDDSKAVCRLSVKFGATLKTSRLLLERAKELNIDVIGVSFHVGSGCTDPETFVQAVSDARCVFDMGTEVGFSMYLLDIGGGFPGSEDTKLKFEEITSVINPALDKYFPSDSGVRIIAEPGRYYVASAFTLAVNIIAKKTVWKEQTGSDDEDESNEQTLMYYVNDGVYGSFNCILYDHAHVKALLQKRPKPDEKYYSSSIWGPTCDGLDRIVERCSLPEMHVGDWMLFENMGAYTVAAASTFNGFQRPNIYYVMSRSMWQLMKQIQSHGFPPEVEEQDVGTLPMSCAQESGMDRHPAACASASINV
Protocol: It is known that in hepatoma H-35 cells, ODC activity is very low in quiescent cells, and is increased by the addition of 10^-6 M insulin, reaching a peak approximately 4 to 5 hours after the addition of the insulin.

ODC [5] = target: T1, ODC; details: for inhibition at 15000 µM: read-out: ODC activity decreased
H-35 cells = experiment: DBP uptake and intracellular distribution in H-35 hepatoma cells; assay type: in vitro ADME, rat
[6] = tested on: insulin-induced H-35 hepatoma cells; experiment: Intracellular polyamine levels in insulin-induced H-35 hepatoma cells; assay type: cell-based, rat; details: 100 μM, hour 4
[7] = tested on: cell-derived rat and human xenografts; details: compared with 0.15% DBP; cited from earlier work
[8] = added 3 hours after insulin (time 4 hours)
[9] = H-35 cells not treated with insulin

Compound: c1ccc(CNCCCCCNCc2ccccc2)cc1 [DBC, N,N'-dibenzylcadaverine]
effect on cell proliferation ([1]; 100 μM, time not stated): showed inhibition of cell proliferation
effect on cell morphology ([2]; 100 μM, 24 hours): affect cell morphology similarly
inhibition of uptake of exogenous putrescine ([3]; (1,4-14C)-putrescine 10 μM): produced an inhibition of the uptake of exogenous putrescine
ODC inhibition (in words) (ODC [4]; [8]): ODC inhibition values were very similar
ODC activity (in words) (ODC [4]): no significant ODC activity was detected
in vitro ODC inhibition (in words) (ODC [5]; isolated ODC): weaker inhibitors than putrescine itself
inhibition at 15000 µM (ODC [5]): < 10%

Compound: NCCCC(N)(C(=O)O)C(F)F (stereo not drawn) [DFMO, difluoromethylornithine]
effect on cell proliferation ([1]; 100 μM, time not stated): ineffective in inhibiting cell proliferation
effect on cell proliferation ([1]; 1 mM, after 48 hours): inhibit cell proliferation
minimal effective concentration ([1]; H4IIE, rat hepatoma cell line, read-out: concentration required for similar cytostatic effect): 1000 µM
effect on cell morphology ([2]; 100 μM, 24 hours): no morphological changes
effect on cell morphology ([2]; 1 mM): no morphological changes
ODC inhibited from the control group (ODC [4]; added 1 hour before harvesting (6 hours after insulin)): 79%
ODC inhibition (in words) (ODC [4]; [8]): ODC inhibition values were very similar
ODC activity (in words) (ODC [4]): no significant ODC activity was detected
intracellular putrescine level [6]: decreased the endogenous levels of putrescine
intracellular spermidine level [6]: lowered the levels of spermidine
intracellular spermine level [6]: Neither reagent had an effect on the intracellular concentration of spermine
concentration required to produce the same effect on xenografts [7]: 2%

Compound: NCCCCN [putrescine, 1,4-diaminobutane]
Km ([3]; 2 mM and 20 mM (1,4-14C)-putrescine): 5.2 ± 0.6 µM
ODC inhibition (in words) (ODC [4]; time 1 hour): required longer time periods to reach similar ODC inhibition levels
intracellular putrescine level [6]: greatly increased the putrescine cell contents
intracellular spermidine level [6]: very little effect on intracellular spermidine and spermine levels
intracellular spermine level [6]: very little effect on intracellular spermidine and spermine levels
inhibition at 15000 µM (ODC [5]): 57%

Continued, in another order:

ODC inhibition (in words) (ODC [4]; [8]): ODC inhibition values were very similar
ODC activity (in words) (ODC [4]): no significant ODC activity was detected
intracellular distribution of DBP, cytosol (H-35 cells; [9]): 97%
intracellular distribution of DBP, nuclear fraction (H-35 cells; [9]): 2%
DBP uptake, of the amount added (H-35 cells; H-35 cells not treated with insulin, 100 μM, 24 hours): approximately 6±2%
DBP uptake, of the amount of putrescine added to the medium (H-35 cells; insulin-induced H-35 cells, 100 μM): approximately 13±4%
inhibition at 15000 µM (ODC [5]): < 10%
Compound: c1ccc(CNCCCCNCc2ccccc2)cc1 [DBP, N,N'-dibenzylputrescine]
ODC inhibition (in words) (ODC [4]; time 1 hour): required longer time periods to reach similar ODC inhibition levels

inhibition at 15000 µM (ODC [5]): < 10%
Compound: c1ccc(CNCCCNCc2ccccc2)cc1 [DBPr, dibenzylpropanediamine]

inhibition at 15000 µM (ODC [5]): 13%
Compound: CCNCCCCNCC [DEP, diethyl putrescine]

inhibition at 15000 µM (ODC [5]): 33%
Compound: CNCCCCNC [DMP, dimethyl putrescine]
